Test results as given in PubChem BioAssay AID540318 (Broad Institute, 2011).

Tested on: BJeLR fibroblasts viability, Alamar Blue fluorescence, 48 h
Experiment: viability loss in BJeLR fibroblasts, dose response, cell-based, Ras selective lethality, dry powder, set 4 (AID 540318)

Structure (SMILES) | AC50
O=C(NCCNC(c1ccccc1)c1ccccc1)c1ccc([N+](=O)[O-])o1 | 25.9 µM
Cc1onc(C(=O)N2CCN(C(c3ccc(Cl)cc3)c3ccc(Cl)cc3)CC2)c1[N+](=O)[O-] | 0.364 µM
O=C(c1cc([N+](=O)[O-])ccn1)N1CCN(C(c2ccccc2)c2ccccc2)CC1 | 37.1 µM
CCOc1ccccc1-n1c(C(C)N2CCN(C(=O)COc3ccc(Cl)cc3)CC2)nc2ccccc2c1=O (configuration not stated) | 1.43 µM
O=C(c1ccc([N+](=O)[O-])o1)N1CCN(C(c2ccc(F)cc2)c2ccc(F)cc2)CC1 | 34.9 µM
COC(=O)c1ccc([C@@H]2c3[nH]c4ccccc4c3C[C@@H](C(=O)OC)N2C(=O)CCl)cc1 | 0.79 µM
Cc1onc(C(=O)N2CCN(C(c3ccccc3)c3ccccc3)CC2)c1[N+](=O)[O-] | 2.81 µM
Cc1onc(C(=O)N2CCCN(C(c3ccccc3)c3ccccc3)CC2)c1[N+](=O)[O-] | 3.45 µM
COc1ccc(C(c2ccc(OC)cc2)N2CCN(C(=O)c3noc(C)c3[N+](=O)[O-])CC2)cc1 | 4.29 µM
Cc1onc(C(=O)N2CCN(C(c3ccccc3)c3ccc(Cl)cc3)CC2)c1[N+](=O)[O-] (configuration not stated) | 0.706 µM
Cc1onc(C(=O)N2CCN(C(c3ccc(F)cc3)c3ccc(F)cc3)CC2)c1[N+](=O)[O-] | 0.934 µM
Cc1onc(CC(=O)N2CCN(C(c3ccc(F)cc3)c3ccc(F)cc3)CC2)c1[N+](=O)[O-] | 28 µM
